Test results as given in publication PMC9607644, “Glycoconjugation of Quinoline Derivatives Using the C-6 Position in Sugars as a Strategy for Improving the Selectivity and Cytotoxicity of Functionalized Compounds” (Molecules, 2022).

Columns and labels:
Format in all cases: cell-based, human
MCF-7 cells [1] = assay: Annexin V-FITC/PI apoptosis flow cytometry, MCF-7; conditions: IC50 dose, 24 h
Source text: (§1) Apoptosis is a natural biological process involving programmed cell death and plays an important role in maintaining correct homeostasis between cell proliferation and cell death. This is in contrast to necrosis, which is accompanied by acute inflammation, preceded by cell degradation due to the loss of the integrity of the cell membrane. It is possible to distinguish viable cells from apoptotic and necrotic cell fractions using Annexin V-FITC and Propidium Iodide (PI). Annexin V-FITC labels phosphatidylserine residues that, after the start of apoptosis, are located on the outer surface of the cell membrane, enabling the identification of cells in the early stages of apoptosis. PI binds stoichiometrically to intracellular DNA during late apoptosis and necrosis when the cell membrane has been damaged. This combination allows for the differentiation of early apoptotic (A+/P−), late apoptotic (A+/P+), necrosis (A−/P+), and normal (A−/P−) cells that can be quantified by flow cytometry.
(§2) The cell cycle and the type of cell death induced by the test compounds were measured by using flow cytometry according to the manufacturer’s protocol. […] Control cells were grown with fresh medium supplemented with 0.5% DMSO. After 24 h of incubation, the cells were collected by trypsinization. Then, samples were centrifuged (3 min, 2000 rpm, RT) and washed with PBS, after which the cells were centrifuged again (3 min, 2000 rpm, RT) and the supernatant was carefully removed. The resulting precipitate contained cells, which were used for flow cytometry experiments.
(§3) The fraction of dead cells after treatment with the test compounds were detected using the FITC Annexin-V Apoptosis Detection Kit with PI (BioLegend, San Diego, CA, USA). […] 250 μL of the Annexin-V Binding Buffer was then added and the samples were incubated in the dark on ice for 15 min.

NHDF-Neo cells = assay: Cell cycle analysis by flow cytometry, NHDF-Neo; conditions: IC50 dose, 24 h
Source text: After determining the type of cell death caused by the test compounds, the flow cytometry technique was used to study their influence on potential changes in the course of the cell cycle of the HCT-116, MCF-7, and NHDF-Neo lines. The cell cycle is the sequence of growth and division of cells, both normal and cancerous. This process begins from the resting phase (G0) through the active growth phases (G1, S, G2), leading to mitosis (M) in which the cell’s nucleus divides. […] After this time, cells were harvested and treated with a buffer to lysate the cells and isolate the cell nuclei. Propidium iodide was used to assess the amount of DNA in particular phases of the cell cycle. Histograms of DNA content in cells are presented in the Supplementary Materials (Figure S74).
The cell cycle and the type of cell death induced by the test compounds were measured by using flow cytometry according to the manufacturer’s protocol. The cells were seeded into 6-well plates at a density of 3 × 10^5 (HCT-116) or 4 × 10^5 (MCF-7, NHDF-Neo) per well (3 mL) and allowed to attach for 24 h under standard conditions with 5% CO2 at 37 °C. The following day, the medium was removed and cells were treated with solutions of test compounds in fresh medium at a dose equal to their IC50 values. Control cells were grown with fresh medium supplemented with 0.5% DMSO. After 24 h of incubation, the cells were collected by trypsinization. Then, samples were centrifuged (3 min, 2000 rpm, RT) and washed with PBS, after which the cells were centrifuged again (3 min, 2000 rpm, RT) and the supernatant was carefully removed. The resulting precipitate contained cells, which were used for flow cytometry experiments.
For cell cycle analysis, the cells were suspended in 300 μL of hypotonic buffer (consisting of: sodium citrate dihydrate 1 g/L, propidium iodide (PI) 1 mg/mL, RNAse A 10 mg/mL (EURx, Gdańsk, Poland), Triton X-100 1:9), mixed gently and incubated in the dark at room temperature for 20–30 min. […]

HCT-116 cells [2] = assay: MTT viability with GLUT1 inhibitor EDG, HCT-116; conditions: 100 µM EDG, 72 h
Description: (§4) To investigate the possible interaction of the tested compounds with glucose receptors and thus to check whether they target the Warburg effect, tests of the influence of the presence of the GLUT inhibitor on the effectiveness of the glycoconjugates were carried out. For this, cells were treated each time with the test compounds in the presence of 100 µM of the GLUT1 inhibitor 4,6-O-ethylidene-α-D-glucose (EDG).

MCF-7 cells [3] = assay: MTT viability with GLUT1 inhibitor EDG, MCF-7; conditions: 100 µM EDG, 72 h
Description: as §4

HCT-116 cells [4] = assay: Annexin V-FITC/PI apoptosis flow cytometry, HCT-116; conditions: IC50 dose, 24 h
Source text: as §1, §2, §3

Structure (SMILES): Oc1cccc2cccnc12 [Compound 8HQ, 8-hydroxyquinoline, reference compound]
- apoptosis induction in words, MCF-7 (MCF-7 cells [1]): results were similar to the control fraction
- cell cycle phase distribution in words, NHDF-Neo (NHDF-Neo cells): subG1 phase increasing
- effect of EDG inhibitor in words, HCT-116 (HCT-116 cells [2]): did not have any effect on the cellular uptake
- effect of EDG inhibitor in words, MCF-7 (MCF-7 cells [3]): did not have any effect on the cellular uptake
- apoptosis induction in words, HCT-116 (HCT-116 cells [4]): results were similar to the control fraction
